Measurements as given in patent US7049311B1, “Pyrrolbenzodiazepines” (Spirogen Limited, priority 1998, dated 2006).
Read-outs that look alike come from different tables or passages of the source.

What was measured:
[1] = tested on: CH1cisR; assay: Ovarian carcinoma cytotoxicity assay; format: cell-based
Experimental: (§1) Compounds of the invention (and Anthramycin as a comparison) were evaluated for their cytotoxic activity in ovarian cell lines by Dr Lloyd R. Kelland's group at The Institute of Cancer Research, Sutton, UK. The five cell lines investigated were SKOV-3, A2780/A2780cisR and CH1/CH1cisR (cis R denotes that the cell line is resistant to cisplatin).
(§2) Single viable cells were seeded in growth medium (160 μL) in […] microtitre plates and allowed to attach overnight. […] After 96 hours, the medium was removed and the remaining cells fixed by exposure to 10% trichloroacetic acid on ice for 30 minutes. The wells were then washed 3-4 times with tap water, air dried overnight and treated with 100 μL of sulphorhodamine B (0.4%) dissolved in 1% acetic acid. Staining was allowed to continue for 10-15 minutes, then the wells were washed 3-4 times with 1% acetic acid, air dried and then added to Tris base (100 μL of 10 mM). Plates were then shaken and absorbance readings at 540 nm were determined using a plate reader. By using the Quattro-Pro software package, the IC50 values were calculated from plots of concentration versus percentage absorbance (compared with 8 untreated wells).

[2] = tested on: SKOV-3; assay: Ovarian carcinoma cytotoxicity assay; format: cell-based
Experimental: as §1, §2

[3] = tested on: CH1; assay: Ovarian carcinoma cytotoxicity assay; format: cell-based
Experimental: as §1, §2

[4] = tested on: A2780cisR; assay: Ovarian carcinoma cytotoxicity assay; format: cell-based, human
Experimental: as §1, §2

[5] = tested on: A2780; assay: Ovarian carcinoma cytotoxicity assay; format: cell-based, human
Experimental: as §1, §2

[6] = tested on: calf thymus DNA; assay: DNA helix melting temperature assay; format: binding; conditions: [PBD]:[DNA] ratio of 1:5, calf thymus DNA
Experimental: The first assay, which is described in G. B. Jones, et al., Anti-Cancer Drug Des., 1990, 5, 249, which is incorporated herein by reference, determines the effect of the test compound on the helix melting temperature of DNA. This assay is designed to give an indication of the strength and extent of cross-linking of the DNA strands by the test compound (i.e. a measure of the stabilisation of the DNA upon ligand binding).
The melting temperature was determined for a 1:5 molar ratio of [ligand] [DNA], where the calf thymus DNA concentration is […] in aqueous sodium phosphate buffer (10 mM sodium phosphate+1 mM EDTA, pH 7.00±0.01). For calf thymus DNA at pH 7.00±0.01, the melting temperature is 67.83±0.06° C. (mean value from 30 separate determinations).

[7] = tested on: SK-MEL-2; assay: NCI in vitro cytotoxicity screen; format: cell-based; conditions: Homo sapiens, SK-MEL-2, 48 h, read-out: LC50
Experimental: (§3) The National Cancer Institute (NCI), Bethesda, Md., USA has available an in vitro cytotoxicity screen which consists of approximately 60 human tumour cell lines against which compounds are tested at a minimum of five concentrations each differing 10-fold. A 48 hour continuous exposure protocol is used, where cell viability or growth is estimated with an SRB protein assay.
(§4) The test compounds were evaluated against approximately 60 human tumour cell lines. The NCI screening procedures were described in detail by Monks and co-workers (Monks, A et al., Journal of the National Cancer Institute, 1991, 83, 757). Briefly, cell suspensions were diluted according to the particular cell type and the expected target cell density (5000-40,000 cells per well based on cell growth characteristics), and added by pipette (100 μL) into 96-well microtitre plates. The cells were allowed a preincubation period of 24 hours at 37° C. for stabilisation. Dilutions at twice the intended test concentration were added at time zero in 100 μL aliquots to the wells. The test compounds were evaluated at five 10-fold dilutions (10^−4, 10^−5, 10^−6, 10^−7 and 10^−[…]). The test compounds were incubated for 48 hours in 5% CO2 atmosphere and 100% humidity. The cells were then assayed using the sulphorhodamine B assay. A plate reader was used to read the optical densities and a microcomputer processed the readings into LC50 values, which is the dosage required to kill half of the cells.

[8] = tested on: RXF 393; assay: NCI in vitro cytotoxicity screen; format: cell-based; conditions: Homo sapiens, RXF 393, 48 h, read-out: LC50
Experimental: as §3, §4

[9] = tested on: NCI-H522; assay: NCI in vitro cytotoxicity screen; format: cell-based; conditions: Homo sapiens, NCI-H522, 48 h, read-out: LC50
Experimental: as §3, §4

[10] = Homo sapiens, CH1cisR, 96 h, read-out: IC50 CH1cisR, cisplatin-resistant, 96 hours, sulphorhodamine B
[11] = Homo sapiens, SK-OV-3, 96 h, read-out: IC50 Skov3, 96 hours, sulphorhodamine B
[12] = Homo sapiens, CH1, 96 h, read-out: IC50 CH1, 96 hours, sulphorhodamine B
[13] = Homo sapiens, A2780cisR, 96 h, read-out: IC50 A2780cisR, cisplatin-resistant, 96 hours, sulphorhodamine B
[14] = Homo sapiens, A2780, 96 h, read-out: IC50 A2780, 96 hours, sulphorhodamine B

Compound | IC50 [1, 10] [µM] | IC50 [2, 11] [µM] | IC50 [3, 12] [µM] | IC50 [4, 13] [µM] | IC50 [5, 14] [µM] | other results
Cc1ccc2c(c1O)NC(O)C1CC(/C=C/C(N)=O)=CN1C2=O (centres unmarked) [Anthramycin, anthramycin, reference compound] | 0.05 | 0.16 | 0.062 | 0.16 | 0.155 | 
C/C=C1\C[C@H]2C=Nc3cc(O)c(OC)cc3C(=O)N2C1 [Tomamycin, tomaymycin] |  |  |  |  |  | Induced ΔTa after incubation at 37° C. for 0 h ([6]; pH 7.00, 0 h): 0.97 °C; Induced ΔTa after incubation at 37° C. for 4 h ([6]; pH 7.00, 4 h): 2.38 °C; Induced ΔTa after incubation at 37° C. for 18 h ([6]; pH 7.00, 18 h): 2.56 °C
COc1cc2c(cc1OCCC(=O)N1CCCCC1)N=C[C@@H]1CCCN1C2=O [UP2006 (163)] | 7.9 | 23.5 | 4.9 | 14.5 | 3.2 | 
COc1cc2c(cc1OCCC(=O)N1CCc3ccccc31)N=C[C@@H]1CCCN1C2=O [UP2007 (165), 1, (2,3-dihydro-1H-indolyl)-3-(7-methoxy-5-oxy(11as)-2,3,5,11a-tetrahydro-1H-benzo[e]pyrrolo[1,2-a][1,4]diazepin-8-yloxy)-1-propanone] |  |  |  |  |  | IC50 ([1]; read-out: IC50 CH1cisR, cisplatin-resistant, 96 hours, sulphorhodamine B): 3 µM; IC50 ([2]; read-out: IC50 Skov3, 96 hours, sulphorhodamine B): 5.8 µM; IC50 ([3]; read-out: IC50 CH1, 96 hours, sulphorhodamine B): 1.5 µM; IC50 ([4]; read-out: IC50 A2780cisR, cisplatin-resistant, 96 hours, sulphorhodamine B): 4.9 µM; IC50 ([5]; read-out: IC50 A2780, 96 hours, sulphorhodamine B): 1.55 µM
COc1cc2c(c(OC)c1OCCCOc1c(OC)cc3c(c1OC)N=C[C@@H]1CCCN1C3=O)N=C[C@@H]1CCCN1C2=O [UP2020 (90)] | 2.8 | 1.6 | 1.7 | 7.2 | 10 | 
COc1cc2c(c(OC)c1O)N=CC1CC(=O)CN1C2 (centres unmarked) [UP2021 (130), 7,9-dimethoxy-8-Hydroxy-1,2,3,11a-tetrahydropyrrolo[2,1-c][1,4]benzodiazepin-2-one] | 47 | > 100 | 51 | > 100 | > 100 | 
COc1cc2c(c(OC)c1OCc1ccccc1)N=C[C@@H]1CCCN1C2=O [UP2022 (143), 8-Benzyloxy-7,9-dimethoxy-1,2,3,11a-tetrahydropyrrolo[2,1-c][1,4]benzodiazepin-5-one] | 11 | 33 | 14 | 16.5 |  | 
COc1cccc2c1N=C[C@@H]1CCCN1C2=O [UP2024 (101), (11aS)-9-methoxy-1,2,3,11a-tetrahydro-5H-pyrrolo[2,1-c][1,4]benzodiazepin-5-one] | 1.25 | 2.35 | 1.45 | 1.8 | 1.4 | 
COc1cc2c(cc1OC)C(=O)N1CCC[C@H]1C=N2 [UP2025 (106), (11aS)-7,8-dimethoxy-1,2,3,11a-tetrahydro-5H-pyrrolo [2,1-c][1,4]benzodiazepin-5-one] | 0.11 | 1.7 | 0.082 |  | 0.064 | 
COc1ccc(-c2ccc3c(c2)C(=O)N2CCC[C@H]2C=N3)cc1 [UP2027 (138), (11aS)-7-(4′-Methoxyphenyl)-1,2,3,11a-tetrahydro-5H-pyrrolo[2,1-c]-[1,4]benzodiazepin-5-one] |  |  |  |  |  | IC50 ([1]; Homo sapiens, CH1cisR, cisplatin-resistant, 96 hours, sulphorhodamine B, read-out: IC50 CH1cisR): 1.15 µM; IC50 ([2]; Homo sapiens, SK-OV-3, 96 hours, sulphorhodamine B, read-out: IC50 Skov3): 1.7 µM; IC50 ([3]; Homo sapiens, CH1, 96 hours, sulphorhodamine B, read-out: IC50 CH1): 1.35 µM; CC50 [7]: 9.5 µM; CC50 [8]: 6.6 µM; CC50 [9]: 8 µM; IC50 ([4]; Homo sapiens, A2780cisR, cisplatin-resistant, 96 hours, sulphorhodamine B, read-out: IC50 A2780cisR): 1.55 µM; IC50 ([5]; Homo sapiens, A2780, 96 hours, sulphorhodamine B, read-out: IC50 A2780): 0.56 µM
COC(=O)CC1=CN2C(=O)c3cc(OC)c(OCCCOc4cc5c(cc4OC)C(=O)N4C=C(CC(=O)OC)C[C@H]4C=N5)cc3N=C[C@@H]2C1 [UP2053 (56)] | 0.011 | 0.1 | 0.0115 | 0.058 | 0.0054 | 
COc1cc2c(cc1OCc1ccccc1)N=C[C@@H]1CC(CC#N)=CN1C2=O [UP2074 (10)] | 0.27 | 0.52 | 0.105 | 0.43 | 0.155 | 
COc1cc2c(c(OC)c1OC)N=C[C@@H]1CCCN1C2=O [UP2086 (120), 7,8,9-Trimethoxy-1,2,3,11a-tetrahydro-5H-pyrrolo[2,1-c][1,4]benzodiazepin-5-one] | 2.2 | 2.5 | 1.6 | 0.45 | 0.84 | 
COc1cc2c(cc1OCCCNC(=O)OCC1c3ccccc3-c3ccccc31)N=C[C@@H]1CCCN1C2=O [UP2088 (205), (11aS) 8-(N-9-fluorenylmethoxycarbonyl)aminopropyloxy-7-methoxy-1,2,3,11a-tetrahydro-5H-pyrrolo[2,1-c][1,4]benzodiazepin-5-one] |  |  |  |  |  | IC50 ([1]; cisplatin-resistant, 96 hours, sulphorhodamine B, read-out: IC50 CH1cisR): 16 µM; IC50 ([2]; 96 hours, sulphorhodamine B, read-out: IC50 Skov3): 14 µM; IC50 ([3]; 96 hours, sulphorhodamine B, read-out: IC50 CH1): 12 µM; IC50 ([4]; cisplatin-resistant, 96 hours, sulphorhodamine B, read-out: IC50 A2780cisR): 8.5 µM; IC50 ([5]; 96 hours, sulphorhodamine B, read-out: IC50 A2780): 11 µM
C=CC1=CN2C(=O)c3cc(OC)c(OC)cc3N=C[C@@H]2C1 [UP2089 (177), (11aS)-1,11a-dihydro-7,8-dimethoxy-2-ethenyl-5H-pyrrolo[2,1-c][1,4]benzodiazepin-5-one] | 0.0023 | 0.0054 | < 0.0025 | 0.0042 | 0.0022 | 
COc1ccc(C2=CN3C(=O)c4cc(OC)c(OC)cc4N=C[C@@H]3C2)cc1 [UP2092 (179), (11aS)-1,11a-dihydro-7,8-dimethoxy-2-(4-methoxyphenyl)-5H-pyrrolo[2,1-c][1,4]benzodiazepin-5-one] | 0.0082 | 0.0098 | 0.0016 | 0.007 | 0.004 | 
COc1cc2c(cc1OC)C(=O)N1C=C(c3ccccc3)C[C@H]1C=N2 [UP2095 (181), (11aS)-1,11a-dihydro-7,8-dimethoxy-2-phenyl-5H-pyrrolo[2,1-c][1,4]benzodiazepin-5-one] | < 0.05 | < 0.05 | < 0.05 | < 0.05 | < 0.05 | 
C/C=C1\C[C@H]2C=Nc3cc(OCc4ccccc4)c(OC)cc3C(=O)N2C1 [UP2100 (207)] | < 0.05 | 0.081 | < 0.05 | 0.066 | < 0.05 | 
